Results as given in patent US20120122870A1, “Treatment Of Ischemia-Reperfusion Injury” (MUSC FOUNDATION FOR RESEARCH DEVELOPMENT, priority 2009, published 2012).
Entries after “also recorded” stand apart in the source; their conditions may differ.

Assays:
[1] = test system: hepatic warm IR in C57BL/6 mice; assay: Liver necrosis (H+E, image analysis) after hepatic warm IR; type: in vivo
Method: Warm IR upregulates SK in the liver. IR injury to the liver occurs in LT. Since SK is associated with inflammatory processes, we investigated whether IR affects SK expression in the liver. Male C57BL/6 mice (8-9 weeks) were gavaged with ABC294640 (ABC, 50 mg/kg) or an equal volume of vehicle (0.375% Tween-80 in phosphate buffer) 1 h prior to surgery. Under ether anesthesia, hepatic ischemia was induced by clamping the hepatic artery and portal vein to the upper three lobes of the liver (i.e., about 70% of total liver). One hour later, the ischemic liver was reperfused by opening the vascular clamp. Livers were collected 6 h later under pentobarbital anesthesia (80 mg/kg, i.p.) and SK was detected immunohistochemically. […] SK expression increased markedly after hepatic IR (FIG. 9 middle). Upregulation of SK occurred most overtly in hepatocytes in the midzonal regions of the liver lobule.
ABC294640 prevents hepatic warm IR-induced cell death. SK increased after hepatic IR, therefore, we investigated whether ABC294640 protects against hepatic IR injury. […] Necrotic areas became panlobular after 1 h-ischemia plus 6 h of reperfusion (FIG. 10, middle). Necrotic area, quantified by computerized image analysis of 10 random fields per slide, accounted for 68% of the liver tissue (FIG. 11A). […] Hepatic apoptosis was evaluated by terminal deoxylnucleotidyl transferase-mediated deoxyuridine triphosphate biotin nick end labeling (TUNEL) (FIG. 11B). […]
Histology: Under pentobarbital anesthesia (50 mg/kg, i.p.), livers were rinsed with 10 ml normal saline and perfusion-fixed with 4% paraformaldehyde in phosphate buffer, embedded in paraffin, and sections were stained with hematoxylin-eosin (H+E). Necrotic areas in sections were quantified by image analysis using an Image-1/AT image acquisition and analysis system (Universal Imaging Corp., West Chester, Pa.) incorporating an Axioskop 50 microscope (Carl Zeiss, Inc., Thornwood, NY) and a 10× objective lens.

[2] = test system: lean liver transplantation in rats; assay: Lean liver transplantation, serum ALT; type: in vivo; details: 60 μM in UW and Ringer's solutions plus 50 mg/kg i.p. to recipients; 6 h after LT; 8 h cold storage
Method: ABC294640 decreases graft injury after lean LT. To investigate whether ABC294640 protects liver grafts after LT, a pilot study was conducted. Lean livers were explanted and stored in UW solution for 8 h. ABC294640 was added to the UW solution and the lactated Ringer's post-storage solution at a concentration of 60 μM and injected into the recipients (50 mg/kg, i.p.) immediately after transplantation. […] Liver transplantation: Inbred male Lewis rats (200-250 g) were used to prevent immunological interference. Under ether anesthesia, heparin (200 IU) in 0.5 mL of lactated Ringer's solution was injected into the subhepatic vena cava. A 4-mm long stent prepared from polyethylene tubing (PE50) was inserted into the common bile duct and secured with a 6-0 suture. Livers were then flushed with 5 ml of ice-cold UW cold storage solution. Venous cuffs prepared from 14-gauge i.v. catheters were placed in the subhepatic vena cava and the portal vein. Liver explants were stored in UW solution (0-1° C.) for 4-24 h, rinsed with lactated Ringer's solution and then implanted (n=10 in each group). […] Clinical chemistry: Blood samples were collected from the vena cava at various times, and ALT and bilirubin were measured enzymatically using analytic kits from Pointe Scientific.

O=C(NCc1ccncc1)C12CC3CC(C1)CC(c1ccc(Cl)cc1)(C3)C2 [ABC294640, 3-(4-chlorophenyl)-N-(pyridin-4-ylmethyl)adamantane-1-carboxamide]
necrotic area of liver tissue ([1]; 50 mg/kg, 1 h-ischemia plus 6 h of reperfusion, image analysis of 10 random fields): ~7%
necrosis / cell death after hepatic IR (in words) ([1]; 1 h-ischemia plus 6 h-reperfusion): attenuates necrosis; also recorded: prevents cell death
attenuation of necrosis compared to vehicle-treated livers ([1]; 1 h-ischemia plus 6 h of reperfusion): ~90%
serum ALT after lean LT vs vehicle [2]: markedly attenuated; also recorded: decreases ALT release
